“And” between values parts separate entries of the source, which are not always exact repeats. Equal values may be shown once.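 Compound exposure: 48 hours, 5 concentrations, 96-well plates. The concentration for 50% growth inhibition is given as GI50. TGI marks complete inhibition of growth.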

The text below walks through data of PubChem BioAssay (NCI).

Holding throughout (test): NCI anticancer screen, dose series, 48 h
In test [1] the test system is NCI/ADR-RES ovarian.
The subject of test [2] is CCRF-CEM leukemia.
Test [3] concerns SK-OV-3 ovarian.
Test [4] concerns PC-3 prostate.
Test [5] has as its system HCT-116 colon.
Test [6] deals with SW-620 colon.
Test [7] deals with M14 melanoma.
For test [8], the system named is K-562 leukemia.
In test [9] the test system is SK-MEL-5 melanoma.
In test [10] the test system is RPMI-8226 leukemia.

As to `COC(C(=O)[C@@H](O)[C@@H](C)O)[C@@H]1Cc2cc3cc(O[C@H]4C[C@@H](O[C@H]5C[C@@H](O)[C@H](O)C(C)O5)[C@H](O)C(C)O4)c(C)c(O)c3c(O)c2C(=O)[C@H]1O[C@H]1C[C@@H](O[C@H]2C[C@@H](O[C@H]3C[C@@H](O)[C@@H](O)C(C)O3)[C@@H](O)C(C)O2)[C@H](O)C(C)O1` (stereo partly drawn), the GI50 is above 32.5 µM in test [1]; 1.84 µM in test [2]; 0.422 µM in test [3]; 0.914 µM in [4]; 0.275 µM in [5]; 0.715 µM in [6]. The GI50 in [7] is 0.633 µM; in test [8], 0.312 µM. Moreover, the TGI in [1], in [2], in test [3], in test [4], in test [5] and in [6] was above 32.5 µM in each case. In addition, the TGI in [7] is 7.61 µM; in [8], above 32.5 µM.
As to `CCOC(=O)C1=C(N)Oc2cc(OC)ccc2C1c1ccc(F)c(F)c1` (stereo not drawn), the GI50 in test [1] is 0.703 µM; in [2], 2.26 µM; in [3] it was 3.66 µM; in [4] it was 2.33 µM; in [9], 1.68 µM; in test [5], 1.25 µM. The GI50 in [6] is 0.516 µM; in test [10] it was 2.73 µM; in test [7] it was 0.483 µM. Besides, the TGI came to 17 µM in [1]; 19.7 µM in test [2]; 16.4 µM in test [3]; 15.1 µM in test [4]; 12.6 µM in [9]; 16.1 µM in test [5]. Further, the TGI in [6] was 15.9 µM; in [10] it was 18.2 µM; in [7], 13.5 µM.
With `N=C(N)c1ccc(-c2ccc(-c3ccco3)o2)cc1F`, the GI50 in [1] is 2.66 µM; in [2] it was 2.77 µM; in test [3] it was 3.2 µM; in test [9], 1.64 µM; in [5], 1.69 µM; in [6], 1.72 µM. The GI50 is 1.95 µM in test [10], 1.88 µM in test [7] and 1.58 µM in [8]. In addition, the TGI worked out at 10.9 µM in test [1]; 8.16 µM in test [2]; 11.5 µM in [3]; 3.04 µM in test [9]; 3.49 µM in test [5]; 3.7 µM in [6]. Further, the TGI in test [10] is 4.68 µM; in [7], 3.76 µM; in test [8], 3.82 µM.
Turning to `CC1=C(C(=O)Nc2ccc(Cl)c(Cl)c2)C(c2cccc(O)c2)NC(=S)N1` (stereo not drawn), the GI50 is 10 µM in [3]; 9.54 µM in test [4]; 8.12 µM in test [9]; 18.1 µM in [5]; 12.5 µM in test [6]; 10.1 µM in test [10]. Moreover, the GI50 was 13.6 µM in test [7] and 10.8 µM in test [8]. Moreover, the TGI in test [3] was 20.4 µM; in test [4], 31.4 µM; in [9], 15.4 µM; in test [5], above 50 µM; in test [6] it was 33.2 µM; in test [10], 38.1 µM. Also, the TGI came out at 26.7 µM in [7] and 37.3 µM in [8].
On to `COC(=O)/C(Br)=C/c1c[nH]c2ccc(Br)cc12`, for which the GI50 is 12.4 µM in test [1]; 4.87 µM in test [2]; 17.7 µM in [3]; 11.2 µM in test [4]; 12.2 µM in test [9]; 12.5 µM in test [5]. The GI50 was 14.7 µM in test [6], 11.4 µM in [7] and above 100 µM in [8]. Moreover, the TGI in [1] is 47.8 µM; in [2], 22.8 µM; in test [3], 53.9 µM; in [4] it was 27.8 µM; in test [9], 24.6 µM; in [5], 27.4 µM. Further, the TGI in [6] is 27.8 µM; in test [7] it was 25.8 µM; in test [8], above 100 µM.
Consider `O=C(O)c1cn(C2CC2)c2cc(N3CCN(C(=O)Nc4nc(-c5ccc(Cl)cc5)cs4)CC3)c(F)cc2c1=O`, for which the GI50 is 4.21 µM in test [1]; 1.22 µM in [2]; 2.35 µM in test [3]; 2.7 µM in test [4]; 1.76 µM in test [9]; 1.12 µM in [5]. In addition, the results for the GI50 in test [6], in [7] and in [8] were 4.7 µM, 2.86 µM and 2.24 µM, respectively. In addition, the TGI was above 100 µM in test [1]; above 100 µM in test [2]; 8.12 µM in [3]; above 100 µM in test [4]; 3.92 µM in [9]; above 100 µM in test [5]. The TGI in test [6], in [7] and in test [8] was above 100 µM throughout.
Consider `C=C1CCC2C(C)(CO)C(O)CCC2(C)C1CC(O)C1=CCOC1=O` (stereo not drawn), for which the TGI was 84.3 µM in [2]; above 100 µM in [3]; above 100 µM in [9]; 73.3 µM in test [5]; 51.3 µM in test [6]; above 100 µM in test [10]. Further, the TGI in [7] and in [8] was above 100 µM each time.
For `Cn1c(-c2ccccc2)c/c(=N\NS(C)(=O)=O)c2cc(S(=O)(=O)O)ccc21`, the TGI in test [2], in [3], in [9], in test [5], in [6] and in test [10] was above 100 µM throughout. In addition, the TGI in test [7] and in [8] was above 100 µM each time.
Consider `COC(=O)c1cc(O)ccc1NC(=O)c1ccc(O)cc1`, for which the TGI in [2], in test [3], in test [9], in test [5], in test [6] and in test [10] was above 100 µM each time. The TGI in test [7] and in [8] was above 100 µM throughout.
In the case of `O=[N+]([O-])c1ccc(C2N3CCCCC3[C@@H]3c4[nH]c5ccccc5c4CCN23)cc1` (stereo partly drawn), the TGI was 64.4 µM in test [2]; above 100 µM in test [3]; 28.2 µM in test [9]; 19.7 µM in test [5]; above 100 µM in [6]; above 100 µM in test [10]. In addition, the TGI in test [7] is 38.9 µM; in test [8], above 100 µM.
As to `CCC1=C[C@H]2CN(CCc3c([nH]c4ccccc34)[C@@](C(=O)OC)(c3cc4c(cc3OC)N(C)[C@H]3[C@@](O)(C(=O)OC)[C@H](OC(C)=O)[C@]5(CC)[C@@H]6C[C@@H]6CN6CC[C@]43[C@@H]65)C2)C1`, the GI50 in test [1] is 0.161 µM; in test [2], 0.0495 µM; in test [3], 0.0358 µM; in test [4], 0.0178 µM; in [9], 0.0143 µM; in [5], 0.0185 µM. Also, the GI50 in [6] was 0.0428 µM; in test [7], 0.0264 µM. The TGI is 1.42 µM in test [1]; 4.48 µM in [2]; 12.2 µM in [3]; 4.24 µM in [4]; 0.586 µM in test [9]; 2.61 µM in test [5]. The TGI in test [6] came to 3.89 µM; in [7], 0.156 µM.
Turning to `COc1ccc(/C=C/C(=O)c2ccc(NC(=O)CSc3nnc(-c4cc(OC)c(OC)c(OC)c4)o3)cc2)cc1`, the GI50 in test [1] was 2.42 µM; in test [2] it was 1.84 µM; in test [3], 2.42 µM; in test [4], 1.75 µM; in [9], 2.14 µM; in test [6], 1.86 µM. Moreover, the results for the GI50 in test [10] and in [7] were 1.73 µM and 1.6 µM, respectively. Further, the TGI in [1] was found to be 7.03 µM; in test [2], 4.56 µM; in test [3], 5.68 µM; in test [4] it was 3.3 µM; in test [9] it was 5.24 µM; in [6] it was 3.6 µM. In addition, the TGI in [10] amounted to 4.31 µM; in test [7], 3.3 µM.
Consider `CC(C)(C)C1CCN(C(=O)c2ccccc2)CC1`, for which the TGI in [2], in test [3], in test [9], in test [5], in test [6] and in [10] was above 100 µM in each case. The TGI in [7] and in test [8] was above 100 µM each time.
As for `C[C@H]1[C@H](C)CC[C@]2(C(=O)O)CC[C@]3(C)C(=CC[C@@H]4[C@@]5(C)CC[C@H](OC(=O)/C=C\c6ccc(O)cc6)C(C)(C)[C@@H]5CC[C@]43C)[C@H]12`, the GI50 in test [1] is 3.02 µM; in test [3], 11.9 µM; in test [9], 3.85 µM; in [5] it was 1.53 µM; in test [6] it was 17.6 µM; in [10], 1.8 µM. The TGI was found to be 15 µM in test [1]; 26.5 µM in [3]; 14.3 µM in test [9]; 3.98 µM in test [5]; 33.7 µM in [6]; 10.3 µM in test [10].
On to `COc1ccc(/C=C2\CCCC3=C2N=C2SC=NN2C3c2ccc(OC)c(OC)c2)cc1OC` (stereo not drawn), for which the GI50 in test [1] was 18.2 µM; in [2], 6.16 µM; in [3], 56.4 µM; in test [4], 37.8 µM; in test [9] it was 16.4 µM; in [5] it was 4.79 µM. Also, the GI50 is 10.1 µM in test [6], 11.9 µM in test [7] and 6.09 µM in test [8]. For the same compound, the TGI is above 100 µM in test [1]; above 100 µM in test [2]; above 100 µM in test [3]; above 100 µM in [4]; above 100 µM in [9]; 32.5 µM in test [5]. The TGI in test [6] is 39.3 µM; in [7], above 100 µM; in test [8], above 100 µM.
Take `COC(=O)C1CCc2nnc(-c3cccnc3)n21` (stereo not drawn): the TGI in [2], in [3], in test [9], in [5], in test [6] and in [10] was above 100 µM each time. In addition, the TGI in test [7] and in [8] was above 100 µM throughout.
Turning to `C#Cc1ccc(-n2c(/C=C/c3ccc4ccccc4n3)nc3ncccc3c2=O)cc1`, the GI50 is 0.338 µM in [1]; 0.351 µM in test [3]; 0.341 µM in test [4]; 0.246 µM in [9]; 0.346 µM in test [5]; 0.387 µM in test [6]. The GI50 in [8] is 0.33 µM. Besides, the TGI was found to be 1.23 µM in test [1]; 1.08 µM in test [3]; 1.75 µM in test [4]; 0.683 µM in test [9]; 1.2 µM in test [5]; 1.52 µM in test [6]. Moreover, the TGI in [8] was above 100 µM.
As to `COC(=O)C12OCC34C(CC5C(C)=CC(=O)C(O)C5(C)C3C(O)C1O)OC(=O)C(OC(=O)CC(C)C)C24` (stereo not drawn), the GI50 in test [1] is 0.288 µM; in test [2], < 0.0503 µM and 0.05 µM; in test [3] it was 0.3 µM and 0.05 µM; in test [6] it was 0.042 µM and 0.05 µM; in test [10], below 0.0289 µM; in [7], 0.0034 µM. The TGI in test [4] is 0.0121 µM; in test [7] it was 0.0129 µM and 0.0689 µM.
In the case of `O=C(CCc1cc(-c2ccco2)n(-c2ccc([N+](=O)[O-])cc2[N+](=O)[O-])n1)Nc1ccccc1`, the TGI in test [2], in [3], in [9], in [5], in test [6] and in test [10] was above 100 µM each time. The TGI in test [7] and in test [8] was above 100 µM in each case.
As for `COC1(C)Cc2c(c(C)c(O)c3c2C(=O)C=C(Cl)C3=O)O1` (stereo not drawn), the TGI in test [2] is 26.3 µM; in test [3], above 100 µM; in test [4], above 100 µM; in test [9], above 100 µM; in [5], above 78 µM; in [6], 47.1 µM. Further, the TGI in test [10] was 52.1 µM; in test [7], 56.5 µM; in test [8] it was 36.8 µM.
